Holding throughout (type): functional
Assay [1] concerns Ancylostoma caninum. Description: Antiparasitic activity against Ancylostoma caninum isolate PR assessed as compound concentration required to inhibit parasitic contraction by larval motility assay.
For assay [2], the system named is Ancylostoma caninum. Description: Antiparasitic activity against Ancylostoma caninum isolate PR assessed as compound concentration required to inhibit parasitic contraction by larval arrested morphology assay.
For assay [3], the system named is Ancylostoma caninum. Description: Antiparasitic activity against Ancylostoma caninum isolate NT assessed as concentration of drug required to cause a force of contraction half that of the KCl-induced maximal contraction by force transduction assay.
The test system of assay [4] is Ancylostoma caninum. Description: Antiparasitic activity against Ancylostoma caninum isolate NT assessed as compound concentration required to inhibit parasitic contraction by larval arrested morphology assay.
Assay [5] has as its system Ancylostoma caninum. Description: Antiparasitic activity against Ancylostoma caninum isolate NT assessed as compound concentration required to inhibit parasitic contraction by larval motility assay.
Assay [6] concerns Ancylostoma caninum. Description: Ratio of EC50 for Ancylostoma caninum isolate PR to […] by force transduction assay.
Assay [7] has as its system Ancylostoma caninum. Description: Ratio of IC50 for Ancylostoma caninum isolate NT to IC50 for Ancylostoma caninum isolate PR by larval arrested morphology assay.
Assay [8] concerns Ancylostoma caninum. Description: Antiparasitic activity against Ancylostoma caninum isolate PR assessed as concentration of drug required to cause a force of contraction half that of the KCl-induced maximal contraction by force transduction assay.
For assay [9], the system named is Ancylostoma caninum. Description: Ratio of IC50 for Ancylostoma caninum isolate NT to IC50 for Ancylostoma caninum isolate PR by larval motility assay.

Molecules are shown by their SMILES.

The text below walks through data of ChEMBL document CHEMBL1671630, “Phenotypic characterization of two Ancylostoma caninum isolates with different susceptibilities to the anthelmintic pyrantel” (Antimicrob Agents Chemother, 2008).

On to `C[N+](C)(CCOc1ccccc1)Cc1ccccc1.O=C([O-])c1cc2ccccc2cc1O` [BEPHENIUM HYDROXYNAPHTHOATE], for which the IC50 (commonly the concentration at which inhibition is half-maximal) in [1] came to 8.6 µM; in [2], 17 µM; in assay [4], 45 µM; in assay [5] it was 19 µM. Moreover, the values for the EC50 in assay [3] and in assay [8] were 2880 µM and 2790 µM, respectively. Besides, in assay [6], the “Ratio EC50” value came out at 0.97. Moreover, the “Ratio IC50” value in assay [7] is 0.46; in [9], 0.45.

Consider `Cl.c1ccc([C@H]2CN3CCSC3=N2)cc1` [LEVAMISOLE HYDROCHLORIDE], for which the IC50 was found to be 0.004 µM in assay [1], 0.017 µM in [2], 0.0022 µM in [4] and 0.0015 µM in assay [5]. For the same molecule, the EC50 (usually the concentration at which the effect is half-maximal) in [3] turned out to be 120 µM; in assay [8], 244 µM. The “Ratio EC50” value in assay [6] stood at 2. The results for the “Ratio IC50” value in [7] and in assay [9] were 7.2 and 2.7, respectively.

Take `CN1CCC[C@H]1c1cccnc1` [NICOTINE]: the IC50 in assay [1] stood at 3.6 µM; in assay [2], 6.2 µM; in assay [4], 5.8 µM; in assay [5] it was 3.7 µM. Moreover, the EC50 in assay [3] is 942 µM; in assay [8] it was 1960 µM. The “Ratio EC50” value in assay [6] worked out at 2.1. For the same molecule, the figures for the “Ratio IC50” value in assay [7] and in assay [9] were 1.07 and 0.95, respectively.

With `CN1CCCN=C1/C=C/c1cccs1` [PYRANTEL PAMOATE], the half-inhibitory concentration (IC50) came out at 0.066 µM in [2] and 0.0037 µM in assay [4]. For the same molecule, the EC50 in [3] came to 217 µM; in [8], 681 µM.

Consider `CN1CCCN=C1/C=C/c1cccs1.O=C(O)c1cc2ccccc2c(Cc2c(O)c(C(=O)O)cc3ccccc23)c1O` [PYRANTEL PAMOATE], for which the “Ratio EC50” value in assay [6] amounted to 3.1. Besides, the “Ratio IC50” value in [7] was 18.3.
